Source: ChEMBL document CHEMBL1149221, “Terephthalamide derivatives as mimetics of the helical region of Bak peptide target Bcl-xL protein” (Bioorg Med Chem Lett, 2004)

Molecular target: Bcl-2-like protein 1 (Homo sapiens, UniProt Q07817)
Assay: Binding affinity for Bcl-xL was assessed by a fluorescence polarization assay using a fluorescently labeled 16-mer Bak-peptide

Bcl-2-like protein 1, sequence (Q07817 whole entry): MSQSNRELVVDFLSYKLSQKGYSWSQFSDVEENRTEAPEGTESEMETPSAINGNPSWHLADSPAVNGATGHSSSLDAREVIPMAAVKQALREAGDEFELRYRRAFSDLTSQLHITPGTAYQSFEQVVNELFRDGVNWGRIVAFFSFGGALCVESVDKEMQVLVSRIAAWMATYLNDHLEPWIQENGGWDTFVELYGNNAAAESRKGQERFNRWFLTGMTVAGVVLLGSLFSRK

`CC(C)CC(NC(=O)c1ccc(C(=O)N[C@@H](CC(C)C)C(=O)O)c(Oc2ccccc2)c1)C(=O)O` (stereo partly specified) and `CC(C)CC(NC(=O)c1ccc(C(=O)N[C@@H](CC(C)C)C(=O)O)c(Oc2cccc3ccccc23)c1)C(=O)O` (stereo partly specified) cannot be ordered by Ki: greater than 30 µM for the first, greater than 30 µM for the second.

Going from `COC(=O)[C@H](C)NC(=O)c1ccc(C(=O)N(C(C)C)C(C)C)cc1OC(C)C` to `COC(=O)[C@@H](NC(=O)c1ccc(C(=O)N(C(C)C)C(C)C)cc1OC(C)C)C(C)C`, the Ki falls from 11 µM to 5.85 µM (1.9-fold). The second binds more tightly here.

`CC(C)C[C@H](NC(=O)c1ccc(C(=O)N(CC(C)C)C(C(=O)O)C(C)C)cc1OC(C)C)C(=O)O` (stereo partly specified) and `CC(C)C[C@H](NC(=O)c1ccc(C(=O)N(CC(C)C)C(C)C(=O)O)cc1OC(C)C)C(=O)O` (stereo partly specified) cannot be ordered by Ki: greater than 30 µM for the first, greater than 30 µM for the second.

Compared with `COC(=O)[C@@H](NC(=O)c1ccc(C(=O)N(C(C)C)C(C)C)cc1OC(C)C)c1ccccc1`, `CC(C)C[C@H](NC(=O)c1ccc(C(=O)N(C(C)C)C(C)C)cc1Oc1ccccc1)C(=O)O` is 11-fold lower in Ki: 10.9 µM for the first, 1.01 µM for the second. The second binds more tightly here.

Compared with `COC(=O)CNC(=O)c1ccc(C(=O)N(C)C)cc1`, `COC(=O)[C@@H](CC(C)C)NC(=O)c1ccc(C(=O)N(C(C)C)C(C)C)cc1OC` is lower in Ki: greater than 30 µM for the first, 1.78 µM for the second. The second binds more tightly here.

`CC(C)C[C@H](NC(=O)c1ccc(C(=O)N(C(C)C)C(C)C)cc1Oc1cccc2ccccc12)C(=O)O` gave a Ki of 7.63 µM.
